Consider 32 molecules from US10968203B2, “Pyrimidinyl-pyridyloxy-naphthyl compounds and methods of treating IRE1-related diseases and disorders” (Genentech, Inc., priority 2017, dated 2021).

Structures are written as SMILES. pIC50: −log10 of the molar value. Structures can show the parent of a compound that is named as a salt.

In one assay the test system is XBP1s-luc 293 LUC. In words: cellular PD assay, XBP1s-LUC reporter (Example 903). In kind it is cell-based. The settings on record: Table 1; read-out: XBP1s-luc 293 LUC (IC50). In outline:
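A luciferase fusion, in frame and expressed only when the XBP1 transcript is spliced, served as the readout of cellular IRE1α activity in an XBP1-Luc reporter line.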
Usually pIC50 stands for the negative decadic logarithm of the IC50, by convention in mol/L. For `Cc1ccc2c(NS(=O)(=O)c3cccnc3)cccc2c1Oc1ncccc1-c1ccnc(N[C@H]2CCCNC2)n1` [Example 149, (S)—N-(6-Methyl-5-((3-(2-(piperidin-3-ylamino)pyrimidin-4-yl)pyridin-2-yl)oxy)naphthalen-1-yl)pyridine-3-sulfonamide], the pIC50 was 6.31.
Turning to `Cc1ccc2c(N[C@H](C)[C@@H](C)O)cccc2c1Oc1ncccc1-c1ccnc(N[C@H]2CCCNC2)n1` [Example 381, anti-3-((6-Methyl-5-((3-(2-(((S)-piperidin-3-yl)amino)pyrimidin-4-yl)pyridin-2-yl)oxy)naphthalen-1-yl)amino)butan-2-ol], the pIC50 was 6.39.
Same read-out and setting: the same measure for `Cc1ccc2c(NC[C@@H](O)CF)cccc2c1Oc1ncccc1-c1ccnc(N[C@H]2CCCNC2)n1` (single isomer, unassigned) [Example 334]: 7.05; for `Cc1ccc2c(NCC(C)C#N)cccc2c1Oc1ncccc1-c1ccnc(N[C@H]2CCCNC2)n1` (single isomer, unassigned) [Example 382]: 7.21; for `Cc1ccc2c(NS(=O)(=O)Cc3ccccc3C#N)cccc2c1Oc1ncccc1-c1ccnc(N[C@H]2CCCNC2)n1` [Example 146, (S)-1-(2-Cyanophenyl)-N-(6-methyl-5-((3-(2-(piperidin-3-ylamino)pyrimidin-4-yl)pyridin-2-yl)oxy)naphthalen-1-yl)methanesulfonamide]: 7.74.
As for `Cc1ccc2c(NS(=O)(=O)Cc3ccc(F)cc3F)cccc2c1Oc1ncccc1-c1ccnc(N[C@H]2CCCNC2)n1` [Example 157, (S)-1-(2,4-Difluorophenyl)-N-(6-methyl-5-((3-(2-(piperidin-3-ylamino)pyrimidin-4-yl)pyridin-2-yl)oxy)naphthalen-1-yl)methanesulfonamide], the pIC50 is 8.10.
The same measure, in the same setting: the same measure for `Cc1ccc2c(NS(=O)(=O)CC3CC3)cccc2c1Oc1ncccc1-c1ccnc(N[C@H]2CCCNC2)n1` [Example 124, (S)-1-Cyclopropyl-N-(6-methyl-5-((3-(2-(piperidin-3-ylamino)pyrimidin-4-yl)pyridin-2-yl)oxy)naphthalen-1-yl)methanesulfonamide hydrochloride]: 6.98; for `Cc1ccc2c(NS(=O)(=O)Cc3ccccn3)cccc2c1Oc1ncccc1-c1ccnc(N[C@@H]2CNC[C@H](F)C2)n1` [Example 225, N-(5-((3-(2-(((3S,5R)-5-Fluoropiperidin-3-yl)amino)pyrimidin-4-yl)pyridin-2-yl)oxy)-6-methylnaphthalen-1-yl)-1-(pyridin-2-yl)methanesulfonamide]: 6.33.
Turning to `Cc1nc(CNc2cccc3c(Oc4ncccc4-c4ccnc(N[C@H]5CCCNC5)n4)c(C)ccc23)c(C)s1` [Example 294, (S)-4-(2-((5-(((2,5-Dimethylthiazol-4-yl)methyl)amino)-2-methylnaphthalen-1-yl)oxy)pyridin-3-yl)-N-(piperidin-3-yl)pyrimidin-2-amine], the negative logarithm of the IC50 (pIC50) was 6.62.
Regarding `Cc1ccc2c(NC(=O)[C@@H]3CC34CC4)c(F)ccc2c1Oc1ncccc1-c1ccnc(N[C@@H]2CNC[C@H](C)C2)n1` (single isomer, unassigned) [Example 389], the pIC50 was 7.38.
As to `Cc1ccc2c(NS(=O)(=O)Cc3ccncc3)cccc2c1Oc1ncccc1-c1ccnc(N[C@H]2CCCNC2)n1` [Example 167, (S)—N-(6-Methyl-5-((3-(2-(piperidin-3-ylamino)pyrimidin-4-yl)pyridin-2-yl)oxy)naphthalen-1-yl)-1-(pyridin-4-yl)methanesulfonamide], the pIC50 is 7.72.
In the case of `Cc1ccc2c(NS(=O)(=O)Cc3ccccc3)cccc2c1Oc1ncccc1-c1ccnc(N[C@H]2CC[C@H](N)CC2)n1` [Example 152, N-(5-((3-(2-(((trans)-4-Aminocyclohexyl)amino)pyrimidin-4-yl)pyridin-2-yl)oxy)-6-methylnaphthalen-1-yl)-1-phenylmethanesulfonamide], the negative logarithm of the IC50 (pIC50) is 6.62.
As to `Cc1ccc2c(NS(=O)(=O)CC3CCCC3)cccc2c1Oc1ncccc1-c1ccnc(N[C@H]2CCCNC2)n1` [Example 128, (S)-1-Cyclopentyl-N-(6-methyl-5-((3-(2-(piperidin-3-ylamino)pyrimidin-4-yl)pyridin-2-yl)oxy)naphthalen-1-yl)methanesulfonamide], the negative-log IC50 (pIC50) was 6.50.
The same measure, in the same setting: under `Cc1ccc2c(NS(=O)(=O)CC3CCOCC3)cccc2c1Oc1ncccc1-c1ccnc(N[C@H]2CCCNC2)n1` [Example 133, (S)—N-(6-Methyl-5-((3-(2-(piperidin-3-ylamino)pyrimidin-4-yl)pyridin-2-yl)oxy)naphthalen-1-yl)-1-(tetrahydro-2H-pyran-4-yl)methanesulfonamide hydrochloride] stands 6.80.
Same read-out and setting: the same measure for `Cc1ccc2c(NC[C@H](O)CF)cccc2c1Oc1ncccc1-c1ccnc(N[C@H]2CCCNC2)n1` (single isomer, unassigned) [Example 333]: 7.35; for `CCS(=O)(=O)Nc1cccc2c(Oc3ncccc3-c3ccnc(N[C@H]4CCCNC4)n3)c(C)ccc12` [Example 103, (S)—N-(6-Methyl-5-((3-(2-(piperidin-3-ylamino)pyrimidin-4-yl)pyridin-2-yl)oxy)naphthalen-1-yl)ethanesulfonamide]: 6.59; for `Cc1ccc2c(NS(=O)(=O)C(C)C)cccc2c1Oc1ncccc1-c1ccnc(N[C@H]2CCCNC2)n1` [Example 106, (S)—N-(6-Methyl-5-((3-(2-(piperidin-3-ylamino)pyrimidin-4-yl)pyridin-2-yl)oxy)naphthalen-1-yl) methylethylsulfonamide hydrochloride]: 6.46.
On to `Cc1ccc2c(NC(=O)CCC(F)(F)F)cccc2c1Oc1ncccc1-c1ccnc(N[C@H]2CCCNC2)n1` [Example 178, (S)-4,4,4-Trifluoro-N-(6-methyl-5-((3-(2-(piperidin-3-ylamino)pyrimidin-4-yl)pyridin-2-yl)oxy)naphthalen-1-yl)butanamide], for which the negative-log IC50 (pIC50) is 6.90.
`Cc1ccc2c(NC(=O)[C@@H]3C[C@H]3F)cccc2c1Oc1ncccc1-c1ccnc(N[C@H]2CCCNC2)n1` [Example 236, (1S,2R)-2-Fluoro-N-(6-methyl-5-((3-(2-(((S)-piperidin-3-yl)amino)pyrimidin-4-yl)pyridin-2-yl)oxy)naphthalen-1-yl)cyclopropane-1-carboxamide]: the negative-log IC50 (pIC50) was 6.76.
The same measure, in the same setting: the same measure for `Cc1cc(CNc2cccc3c(Oc4ncccc4-c4ccnc(N[C@H]5CCCNC5)n4)c(C)ccc23)no1` [Example 280, (S)-4-(2-((2-Methyl-5-(((5-methylisoxazol-3-yl)methyl)amino)naphthalen-1-yl)oxy)pyridin-3-yl)-N-(piperidin-3-yl)pyrimidin-2-amine]: 6.87; for `Cc1ccc2c(NS(=O)(=O)Cc3ccccc3F)cccc2c1Oc1ncccc1-c1ccnc(N[C@H]2CCCNC2)n1` [Example 145, (S)-1-(2-Fluorophenyl)-N-(6-methyl-5-((3-(2-(piperidin-3-ylamino)pyrimidin-4-yl)pyridin-2-yl)oxy)naphthalen-1-yl)methanesulfonamide]: 7.82.

The same assay, now with this note: Table 2; read-out: XBP1s-luc 293 LUC (IC50).
Take `Cc1ccc2c(NS(=O)(=O)CCC(C)(F)F)c(F)ccc2c1Oc1ncccc1-c1ccnc(N[C@H]2CCCNC2)n1` [Example 442, (S)-3,3-Difluoro-N-(2-fluoro-6-methyl-5-((3-(2-(piperidin-3-ylamino)pyrimidin-4-yl)pyridin-2-yl)oxy)naphthalen-1-yl)butane-1-sulfonamide hydrochloride]: the pIC50 is 7.40.
As for `Cc1ccc2c(N[C@H]3CCC[C@@H]3O)cccc2c1Oc1ncccc1-c1ccnc(N[C@H]2CCCNC2)n1` (single isomer, unassigned) [Example 396, hydrochloride], the negative-log IC50 (pIC50) is 6.57.
As for `Cc1ccc2c(NS(=O)(=O)CC3CC3)c(F)ccc2c1Oc1ncccc1-c1ccnc(N[C@H]2CCCNC2)n1` [Example 405, (S)-1-Cyclopropyl-N-(2-fluoro-6-methyl-5-((3-(2-(piperidin-3-ylamino)pyrimidin-4-yl)pyridin-2-yl)oxy)naphthalen-1-yl)methanesulfonamide hydrochloride], the pIC50 was 7.60.
As to `Cc1ccc2c(NS(=O)(=O)Cc3ccccc3F)c(F)ccc2c1Oc1ncccc1-c1ccnc(N[C@@H]2CNC[C@@H](F)C2)n1` (single isomer, unassigned) [Example 464, hydrochloride], the negative-log IC50 (pIC50) is 8.40.
On the same count and under the same terms, under `Cc1ccc2c(N3CCC(O)C3)cccc2c1Oc1ncccc1-c1ccnc(N[C@H]2CCCNC2)n1` (single isomer, unassigned) [Example 408] stands 6.33; under `Cc1ccc2c(NC[C@@H](C#N)C(C)C)cccc2c1Oc1ncccc1-c1ccnc(N[C@H]2CCCNC2)n1` [Example 423, (S)-3-Methyl-2-(((6-methyl-5-((3-(2-(((S)-piperidin-3-yl)amino)pyrimidin-4-yl)pyridin-2-yl)oxy)naphthalen-1-yl)amino)methyl) butanenitrile], 6.68; under `Cc1ccc2c(NC[C@@H](C)C#N)cccc2c1Oc1ncccc1-c1ccnc(N[C@H]2CCCNC2)n1` (single isomer, unassigned) [Example 414, hydrochloride], 7.23.
As for `Cc1ccc2c(NC(=O)C[C@@H](O)C(F)(F)F)cccc2c1Oc1ncccc1-c1ccnc(N[C@H]2CCCNC2)n1` (single isomer, unassigned) [Example 436], the negative-log IC50 (pIC50) is 7.12.
Consider `Cc1ccc2c(NS(=O)(=O)Cc3ccc(C#N)cc3)c(F)ccc2c1Oc1ncccc1-c1ccnc(N[C@@H]2CNC[C@@H](F)C2)n1` (single isomer, unassigned) [Example 484, hydrochloride], for which the pIC50 was 8.30.
Take `Cc1ccc2c(NC[C@@H](O)C(F)F)cccc2c1Oc1ncccc1-c1ccnc(N[C@H]2CCCNC2)n1` (single isomer, unassigned) [Example 476, hydrochloride]: the negative logarithm of the IC50 (pIC50) is 6.89.
`CCCCS(=O)(=O)Nc1c(F)ccc2c(Oc3ncccc3-c3ccnc(N[C@H]4CCCNC4)n3)c(C)ccc12` [Example 397, (S)—N-(2-Fluoro-6-methyl-5-((3-(2-(piperidin-3-ylamino)pyrimidin-4-yl)pyridin-2-yl)oxy)naphthalen-1-yl)butane-1-sulfonamide hydrochloride]: the negative logarithm of the IC50 (pIC50) is 7.47.
